According to patent US11020405B2, “Method for prevention or treatment of diabetic complications” (KANGWON NATIONAL UNIVERSITY UNIVERSITY-INDUSTRY COOPERATION …, priority 2017, dated 2021):

Key:
[1] = tested on: human retinal endothelial cells (HRECs); assay: Analysis of ROS of cells (H2DCFDA fluorescence); type: cell-based
Procedure: (§1) Purchased from Applied Cell Biology Research Institute (Cell Systems, Kirkland, Wash.), human retinal endothelial cells (HRECs) were cultured in an M19 medium, containing 20% FBS, 3 ng/mL bFGF, 5 U/mL heparin, 100 U/mL penicillin and […], in a 2% gelatin-coated plate.
(§2) Before the following Test Examples 2 to 7, the HRECs were cultured for 6 hr in a medium containing 1% FBS and an antibiotic agent, thus preparing HRECs of Test Example 1.
With reference to FIG. 3A, the HRECs of Test Example 1 were treated with 0 to 20 μM midazolam, cultured for 30 min, treated with 10 ng/mL VEGF and 10 μM H2DCFDA (Molecular Probes, Eugene, Oreg.), stained for 10 min in a phenol-red-free low-serum medium, and then measured using confocal microscopy to thus determine the fluorescence intensity of single cells.
With reference to FIG. 3B, the HRECs of Test Example 1 were subjected to the respective treatments below and cultured for 30 min. Upon treatment with 10 ng/mL VEGF, treatment with 10 μM H2DCFDA was performed therewith, or alternatively, treatment with 10 μM H2DCFDA was performed alone, followed by staining for 10 min in a phenol-red-free low-serum medium and then measurement via confocal microscopy to thus determine the fluorescence intensity of single cells.

VE-cadherin = assay: Analysis of adherens junction (VE-cadherin staining); type: cell-based, human; settings: HRECs, 10 ng/mL VEGF 90 min with 20 μM midazolam, 5 μM BAPTA-AM, 1 mM NAC, 0.5 μM Trolox, 50 μM cystamine or 20 μM MDC (FIGS. 5, 6)
Procedure: as §1, §2
The HRECs of Test Example 1 were subjected to the respective treatments below and cultured for 30 min. Here, treatment with 10 ng/mL VEGF was performed for 90 min. Thereafter, the HRECs were treated with 1 mM 5-(biotinamido)pentylamine, incubated for 1 hr, fixed with 3.7% formaldehyde, treated with 0.2% triton X-100, treated with a blocking solution containing 138 mM NaCl, 0.1% Tween 20 and 2% BSA dissolved in a 20 mM Tris (pH 7.6) buffer, incubated for 30 min, incubated with a monoclonal VE-cadherin antibody (1:200; Santa Cruz Biotechnology) for 12 hr or more (overnight), incubated with a FITC-conjugated goat anti-mouse antibody (1:200; Sigma-Aldrich), and then measured using confocal microscopy. Some (the following i), iii), iv), vi), ix)) of the results are shown in FIG. 5 and the VE-cadherin concentrations in the portions represented by the dotted lines in FIG. 5 are shown in FIG. 6. With reference to FIG. 6, 10 randomly selected cells were measured to determine the fluorescence intensity of single cells and thus quantify VE-cadherin.
VE-cadherin, which is a protein that mediates adherens junction, was analyzed to evaluate adherens junction.

B16F10 cells = assay: Hyperglycemia-induced cancer metastasis in lungs of diabetic mice (melanoma nodules); type: in vivo, C57BL/6 mice; settings: 10 mg/kg midazolam intraperitoneal daily for 14 days, B16F10 cells intravenously (FIG. 22)
Procedure: FIGS. 22A and 22B show the preventive effects of midazolam against hyperglycemia-induced cancer metastasis in the lungs of diabetic mice. Six-week-old male C57BL/6 mice were administered with streptozotocin (150 mg/kg) to give diabetic mouse models. One weeks after streptozotocin injection, diabetic mice were administered 10 mg/kg midazolam by intraperitoneal injection daily for 14 days, and diabetic and midazolam supplemented diabetic mice were intravenously injected with B16F10 cells (5×10^5) in PBS. The weight of mice were measure in diabetic (16.4±0.2 g) and midazolam supplemented diabetic mice (16.2±0.5 g). Blood glucose levels were also monitored in diabetic (511.0±10.0 mg/dL) and midazolam supplemented diabetic mice (515.7±3.4 mg/dL). Two weeks later, the mice were euthanized by cervical dislocation, and the lungs were removed and bleached in Fekete's solution (70% ethanol, 3.7% paraformaldehyde, 0.75 M glacial acetic acid). Representative images of melanoma metastasis in lungs are shown in additional FIG. 22A. The results of melanoma metastasis assessed by counting metastatic lung nodules under a dissection microscope are shown in additional FIG. 22B (n=2/group).

retinas of diabetic mice = assay: Analysis of ROS concentration in retinas of diabetic mouse model (DHE); type: in vivo, C57BL/6 mice; settings: intravitreal 2 μL of 2 mM midazolam, 2 μM Trolox or 500 mM NAC (FIGS. 12, 13)
Procedure: 6-week-old male C57BL/6 mice (DBL, EumSeong, Korea) were administered with streptozotocin (Sigma-Aldrich) dissolved in a 100 mM citrate buffer (pH 4.5) through intraperitoneal injection in an amount of 150 mg each per kg of mouse weight to give diabetic mouse models. In the diabetic mouse models, the blood glucose level was 19 mM or more when not fasting, and polyuria and diabetes, considered signs of diabetes, were observed. […]
Normal mice (Normal), midazolam-administered normal mice (Midazolam), diabetic mice (Diabetic), midazolam-administered diabetic mice (Diabetic+Midazolam), Trolox-administered diabetic mice (Diabetic+Trolox) and NAC-administered diabetic mice (Diabetic+NAC) were subjected to cervical dislocation and the eyeballs were extracted therefrom and rapidly frozen with an OCT compound (Sakura Finetek, Torrance, Calif., USA). Using a microtome-cryostat (Leica Biosystems, Wetzlar, Germany), 10 μm-thick non-fixed cryosections were prepared, treated with a solution of 5 μM dihydroethidium (DHE, Invitrogen-Molecular Probes) in PBS, stained for 30 min, and measured using confocal microscopy. The results of ROS concentrations quantitatively analyzed using the fluorescence intensity of the cryosections are shown in FIGS. 12 and 13.

In the case of `Cc1ncc2n1-c1ccc(Cl)cc1C(c1ccccc1F)=NC2` [midazolam], the “ROS concentration, concentration dependence” value ([1]; 0 to 20 μM midazolam 30 min, then 10 ng/mL VEGF (FIG. 3A)) is reported as “ROS concentration was decreased with an increase in the concentration of midazolam”, the “ROS concentration (VEGF-induced) compared to control” value ([1]; 10 ng/mL VEGF with 20 μM midazolam, 5 μM BAPTA-AM, 1 mM NAC, 0.5 μM Trolox, 50 μM cystamine or 20 μM MDC (FIG. 3B)) is reported as “no significant ROS concentration increase was observed” and the “VE-cadherin concentration / adherens junction disruption due to VEGF” value (VE-cadherin) is reported as “exhibited the effect of preventing the adherens junction disruption due to VEGF”. For the same compound, the “number of metastatic nodules in the lungs” value (B16F10 cells) was “the number of metastatic nodules in the lungs of diabetic mice was suppressed” and the “ROS concentration in retina compared to normal mice” value (retinas of diabetic mice) was “an increase in ROS concentration was suppressed”.
